Source: US20130011479A1, “DOUBLE-LAYER PHARMACEUTICAL FORMULATIONS CONTAINING OPIOID AGONISTS AND ANTAGONISTS” (L. MOLTENI & C. DEI FRATELLI ALITTI SOCIETA' DI ESERCIZIO …, priority 2010, published 2013)

Assays:
[1] = Intrathecal screening of patients treated with opioids: adverse events / side-effects monitored at several time points; assay type: in vivo; design: key to vertigo / vomiting / pruritus / nausea / numbness / side-effects (grade printed beside morphine) / drowsiness / constipation / loss of appetite / urinary retention / sweating: (0) = none; (1) = mild; (2) = moderate; (3) = intense; (4) = severe
Description: (§1) A dose of opioids was administered with or without naltrexone and the adverse events or side-effects and anti-nociceptive effects were monitored at several time points.
(§2) In particular, patients with chronic (non-oncological) spinal pain and oncological patients in the non-terminal phase with evidence of side effects after minimum doses of opioids were monitored.

[2] = Intrathecal screening of patients treated with opioids: anti-nociceptive effects (Efficacy) monitored at several time points; assay type: in vivo
Description: Patients being treated with opioids underwent intrathecal screening, in which the evidence of side effects is extremely significant.
as §1, §2

[3] = Algoneurodystrophy, 2 h, without naltrexone
[4] = Back pain, 1 h, without naltrexone
[5] = Back pain, 2 h, without naltrexone
[6] = Back pain, 4 h, without naltrexone
[7] = Back pain, 24 h, without naltrexone
[8] = Cancer of the pancreas, without naltrexone
[9] = Diabetes mellitus type II, without naltrexone
[10] = Lumbago, 4 h, without naltrexone
[11] = Lumbago, 6 h, without naltrexone
[12] = Lumbago, 8 h, without naltrexone
[13] = Lumboischialgia in diabetic patients (VAS 6-7), without naltrexone
[14] = Lumboischialgia, without naltrexone
[15] = Lumbosacral spondylitis without myelopathy, 2 h-4 h, without naltrexone
[16] = Multiple sclerosis, without naltrexone
[17] = Nonspecific coccyx disorders, 6 h, without naltrexone
[18] = Persistent pain syndrome, without naltrexone
[19] = Right lumboischialgia, without naltrexone
[20] = Secondary bone and marrow malignancies (patient at r66), without naltrexone
[21] = Secondary bone and marrow malignancies (patient at r76), without naltrexone
[22] = Secondary malignancies of bone and marrow, without naltrexone
[23] = Stenosis of the lumbar spinal canal, without naltrexone
[24] = Persistent pain syndrome, with naltrexone
[25] = Right lumboischialgia, with naltrexone
[26] = Right lumboischialgia, with naltrexone, first mention in the cell
[27] = Right lumboischialgia, with naltrexone, second mention in the cell
[28] = Secondary bone and marrow malignancies (patient at r66), with naltrexone
[29] = Spinal pain, 4 h, with naltrexone
[30] = Spinal pain, 6 h, with naltrexone

SMILES: CN1CC[C@]23c4c5ccc(O)c4O[C@H]2[C@@H](O)C=C[C@H]3[C@H]1C5 [morphine]
- pruritus ([1]; Algoneurodystrophy, 6-8 h, without naltrexone): 6-8 h: pruritus (3), urinary
- pruritus ([1]; Algoneurodystrophy, 1 h, without naltrexone): 1 h: pruritus (3)
- pruritus [1, 3]: 2 h: pruritus (3)
- vertigo ([1]; Back pain, 30 min, without naltrexone): 30 min: vertigo (1)
- nausea [1, 4]: 1 h: vertigo (1), nausea (1)
- vertigo [1, 4]: 1 h: vertigo (1), nausea (1)
- vertigo [1, 5]: 2 h: vertigo (2), vomiting (2)
- vomiting [1, 5]: 2 h: vertigo (2), vomiting (2)
- nausea [1, 6]: 3
- vertigo [1, 6]: 2
- vomiting [1, 6]: vomiting (2)
- pruritus ([1]; Back pain, 8 h, without naltrexone): 8 h: pruritus (2)
- nausea [1, 7]: 24 h: nausea (2), vertigo (2)
- vertigo [1, 7]: 24 h: nausea (2), vertigo (2)
- constipation [1, 8]: constipation
- nausea [1, 8]: 3
- nausea [1, 9]: 3
- pruritus [1, 9]: 4
- drowsiness ([1]; Lumbago, 1 h, without naltrexone): 1 h: drowsiness (1)
- nausea [1, 10]: 4 h: nausea (2), vomiting (2)
- vomiting [1, 10]: 4 h: nausea (2), vomiting (2)
- nausea [1, 11]: 3
- pruritus [1, 11]: 6 h: pruritus (3), urinary reten-
- vomiting [1, 11]: 2
- nausea [1, 12]: 3
- pruritus [1, 12]: pruritus (3), urinary retention (3)
- vomiting [1, 12]: 2
- constipation [1, 13]: constipation
- drowsiness [1, 13]: drowsiness
- nausea [1, 13]: nausea
- oedema [1, 13]: moderate
- pruritus [1, 13]: pruritus
- nausea [1, 14]: nausea (2),
- pruritus [1, 14]: 2
- sweating [1, 14]: sweating (2), vertigo (2),
- vertigo [1, 14]: sweating (2), vertigo (2),
- vomiting [1, 14]: 3
- nausea [1, 15]: nausea
- vomiting [1, 15]: vomiting
- vomiting ([1]; Lumbosacral spondylitis without myelopathy, 6 h-8 h, without naltrexone): 6 h-8 h: vomiting
- constipation [1, 16]: constipation
- loss of appetite [1, 16]: loss of appetite
- nausea [1, 16]: nausea
- vertigo [1, 16]: vertigo
- vomiting ([1]; Nonspecific coccyx disorders, 4 h, without naltrexone): 4 h: recurrent vomiting
- nausea [1, 17]: 6 h: vomiting (3), nausea (3)
- vomiting [1, 17]: 6 h: vomiting (3), nausea (3)
- asthenia ([1]; Nonspecific coccyx disorders, 8 h, without naltrexone): 8 h: asthenia
- side-effects (grade printed beside morphine) ([1]; Nonspecific coccyx disorders, time not given, without naltrexone): morphine (0)
- nausea [1, 18]: nausea
- vertigo [1, 18]: vertigo
- vomiting [1, 18]: 4
- nausea [1, 19]: 2
- pruritus [1, 19]: 4
- vomiting [1, 19]: ing (2), urinary retention (2)
- constipation [1, 20]: constipation (3), drowsiness (3),
- drowsiness [1, 20]: constipation (3), drowsiness (3),
- constipation [1, 21]: tion (1)
- loss of appetite [1, 21]: nausea (4), loss of appetite (4),
- nausea [1, 21]: nausea (4), loss of appetite (4),
- vertigo [1, 21]: 4
- vomiting [1, 21]: vomiting
- constipation [1, 22]: constipation
- pruritus [1, 22]: pruritus (3)
- headache [1, 23]: headache
- nausea [1, 23]: 4
- pruritus [1, 23]: 1
- sweating [1, 23]: sweating
- vomiting [1, 23]: vomiting
- Efficacy [2, 3]: 2 h: 30-40%
- Efficacy ([2]; Algoneurodystrophy, 8 h, without naltrexone): 8 h: 80%
- Efficacy ([2]; Algoneurodystrophy, 14 h, without naltrexone): 14 h: 70%
- Efficacy ([2]; Lumbosacral spondylitis without myelopathy, 2 h-24 h, without naltrexone): 2 h-24 h: 80%
- Efficacy ([2]; Nonspecific coccyx disorders, without naltrexone): Efficacy <30%
- Efficacy [2, 21]: Efficacy: 100%

SMILES: O=C1CC[C@@]2(O)[C@H]3Cc4ccc(O)c5c4[C@@]2(CCN3CC2CC2)[C@H]1O5 [naltrexone]
- chest pain ([1]; Back pain, h 17.30, with naltrexone): chest pain
- tachycardia ([1]; Back pain, h 18.30, with naltrexone): h 18.30: tachycardia
- benefit ([1]; Diabetes mellitus type II, with naltrexone): benefit 100%
- drowsiness ([1]; Lumbago, 1 h, with naltrexone): 1 h: drowsiness (1)
- pruritus ([1]; Lumbago, 2 h, with naltrexone): 2 h: pruritus (2)
- drowsiness ([1]; Lumbago, 4 h, with naltrexone): 4 h: drowsiness (2), pruritus (2)
- pruritus ([1]; Lumbago, 4 h, with naltrexone): 4 h: drowsiness (2), pruritus (2)
- drowsiness ([1]; Lumbago, 6 h, with naltrexone): 1
- pruritus ([1]; Lumbago, 6 h, with naltrexone): 2
- constipation [1, 24]: constipation
- drowsiness [1, 24]: drowsiness
- nausea [1, 24]: nausea
- sweating [1, 24]: sweating
- vertigo [1, 24]: vertigo
- vomiting [1, 24]: vomiting
- side-effects ([1]; Persistent spinal pain syndrome of uncertain aetiology, with naltrexone): none
- nausea [1, 25]: 2
- vomiting [1, 25]: vomiting (2), urinary
- pruritus [1, 26]: 4
- urinary retention [1, 26]: 2
- pruritus [1, 27]: 1
- urinary retention [1, 27]: urinary retention (1)
- constipation [1, 28]: constipation (3), drowsiness
- drowsiness [1, 28]: 3
- urinary retention [1, 28]: short-lived
- pruritus improved by ([1]; Secondary malignancies of bone and marrow, with naltrexone): 90%
- numbness [1, 29]: 4 h: pruritus (1), numbness (1)
- pruritus [1, 29]: 4 h: pruritus (1), numbness (1)
- nausea [1, 30]: nausea (1)
- numbness [1, 30]: 6 h: pruritus (1), numbness (1),
- pruritus [1, 30]: 6 h: pruritus (1), numbness (1),
- nausea ([1]; Spinal pain, 8 h, with naltrexone): 8 h: nausea (1)
- nausea ([1]; Stenosis of the lumbar spinal canal, with naltrexone): nausea (1)
- Efficacy ([2]; Lumbago, 1 h, with naltrexone): 1 h: 30-50%
- Efficacy ([2]; Lumbago, 4 h-8 h, with naltrexone): 4 h-8 h: >50%
- Efficacy ([2]; Spinal pain, 1 h-8 h, at rest, with naltrexone): 1 h-8 h: at rest 100%, under
- Efficacy ([2]; Spinal pain, 1 h-8 h, under strain, with naltrexone): strain 70%
